Key:
Assay in all cases: relative viability (nuclei count vs DMSO), 5 days (fraction); higher = more cells survive
Irinotecan + Pictilisib = compound: CCc1c2c(nc3ccc(OC(=O)N4CCC(N5CCCCC5)CC4)cc13)-c1cc3c(c(=O)n1C2)COC(=O)[C@]3(O)CC [Irinotecan] + CS(=O)(=O)N1CCN(Cc2cc3nc(-c4cccc5[nH]ncc45)nc(N4CCOCC4)c3s2)CC1 [Pictilisib] (partner 1 µM)
Procedure, shortened: (§1)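 Medians of duplicate plates are given as relative viability. That measure is the nuclei count in treated wells divided by the count in vehicle wells. Counts were taken on 4× images of lung cancer cell lines in 1536-well plates, 5 days after pin-tool dosing the day after seeding with one drug alone or a fixed anchor-drug dose plus five library-drug doses (not always all listed) in √10 steps.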

RU-SKI 43 + Crizotinib = compound: CC[C@@H](C)CNCC(=O)N1CCC2=C([C@@H]1COC3=CC=CC(=C3)C)C=CS2 [RU-SKI 43] + C[C@@H](Oc1cc(-c2cnn(C3CCNCC3)c2)cnc1N)c1c(Cl)ccc(F)c1Cl [Crizotinib] (partner 1 µM)
Procedure, shortened: as §1

Irinotecan + Olaparib = compound: CCc1c2c(nc3ccc(OC(=O)N4CCC(N5CCCCC5)CC4)cc13)-c1cc3c(c(=O)n1C2)COC(=O)[C@]3(O)CC [Irinotecan] + O=C(c1cc(Cc2n[nH]c(=O)c3ccccc23)ccc1F)N1CCN(C(=O)C2CC2)CC1 [Olaparib] (partner 8 µM)
Procedure, shortened: as §1

RU-SKI 43 + Trametinib = compound: CC[C@@H](C)CNCC(=O)N1CCC2=C([C@@H]1COC3=CC=CC(=C3)C)C=CS2 [RU-SKI 43] + CC(=O)Nc1cccc(-n2c(=O)n(C3CC3)c(=O)c3c(Nc4ccc(I)cc4F)n(C)c(=O)c(C)c32)c1 [Trametinib] (partner 0.02 µM)
Procedure, shortened: as §1

Cell Line	relative viability (Irinotecan + Pictilisib; first compound 0.6325 µM)	relative viability (Irinotecan + Pictilisib; first compound 2 µM)	relative viability (Irinotecan + Pictilisib; first compound 6.325 µM)	relative viability (Irinotecan + Pictilisib; first compound 20 µM)	relative viability (RU-SKI 43 + Crizotinib; first compound 0.1 µM)	relative viability (RU-SKI 43 + Crizotinib; first compound 0.3162 µM)	relative viability (RU-SKI 43 + Crizotinib; first compound 1 µM)	relative viability (RU-SKI 43 + Crizotinib; first compound 3.162 µM)	relative viability (RU-SKI 43 + Crizotinib; first compound 10 µM)	relative viability (Irinotecan + Olaparib; first compound 0.6325 µM)	relative viability (Irinotecan + Olaparib; first compound 2 µM)	relative viability (Irinotecan + Olaparib; first compound 6.325 µM)	relative viability (Irinotecan + Olaparib; first compound 20 µM)	relative viability (RU-SKI 43 + Trametinib; first compound 0.1 µM)	relative viability (RU-SKI 43 + Trametinib; first compound 0.3162 µM)	relative viability (RU-SKI 43 + Trametinib; first compound 1 µM)	relative viability (RU-SKI 43 + Trametinib; first compound 3.162 µM)	relative viability (RU-SKI 43 + Trametinib; first compound 10 µM)
NCI-H1755	0.249	0.382	0.224	0.361	0.809	1.15	0.953	0.889	0.74	0.482	0.358	0.372	0.42	0.751	0.866	0.839	0.833	0.768
LOU-NH91	0.517	0.518	0.409	0.35	0.795	0.818	0.719	0.754	0.715	0.712	0.477	0.321	0.153	0.774	0.749	0.802	0.825	0.808
NCI-H1975	0.339	0.316	0.204	0.154	1.04	1.3	1.12	0.925	0.709	0.797	0.935	0.323	0.193	0.311	0.351	0.355	0.296	0.257
NCI-H650	0.798	0.297	0.294	0.307	0.76	0.622	0.694	–	0.619	0.181	0.199	0.185	0.198	0.905	0.931	–	1.05	0.96
SW 1573	0.435	0.37	0.173	0.155	1	0.767	0.799	0.768	0.723	0.267	0.239	0.157	0.121	0.586	0.591	0.584	0.567	0.39
NCI-H441	0.434	0.314	0.216	0.32	0.662	0.655	0.637	0.686	0.641	0.243	0.241	0.256	0.229	0.483	0.426	0.552	0.45	0.265
NCI-H1944	0.235	0.251	0.181	0.214	1.17	1.19	1.25	1.25	0.991	0.287	0.221	0.198	0.182	0.349	0.406	0.417	0.387	0.388
NCI-H838	0.472	0.403	0.279	0.214	0.904	0.98	0.826	0.794	0.75	0.632	0.441	0.238	0.18	0.491	0.645	0.471	0.529	0.505
NCI-H661	0.413	0.349	0.262	0.33	0.887	0.943	0.984	0.942	0.938	0.583	0.556	0.396	0.233	0.539	0.676	0.564	0.564	0.477

— the supplement of paper PMC10307832
